The values below come from paper PMC2957295 (Biochemistry, 2010).

The assay addresses T1, Fas (Homo sapiens, UniProt P25445).
T1 sequence (P25445 26-335): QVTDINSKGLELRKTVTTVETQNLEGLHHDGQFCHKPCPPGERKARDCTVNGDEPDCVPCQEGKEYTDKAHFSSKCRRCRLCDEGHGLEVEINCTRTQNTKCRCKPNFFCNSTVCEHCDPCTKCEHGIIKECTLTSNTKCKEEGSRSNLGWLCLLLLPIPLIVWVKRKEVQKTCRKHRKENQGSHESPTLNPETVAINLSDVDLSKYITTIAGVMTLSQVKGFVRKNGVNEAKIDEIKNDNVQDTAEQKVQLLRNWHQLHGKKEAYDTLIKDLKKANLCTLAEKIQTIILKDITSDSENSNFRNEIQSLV
Put plainly: anti-Fas immunoprecipitation of treated cells, Western blot for 4-HNE adduct. The format is cell-based. The note with it: covalent; HepG2 cells, 20 µM 4-HNE, 2 h. On the technique in general: Immunoblotting shows a protein as a band on a membrane.

For the compound `CCCCCC(O)/C=C/C=O` (stereo not shown) [4-hydroxy-2-nonenal], the 4-HNE-Fas adduct entry was “shows the presence of Daxx and 4-HNE-Fas adduct”.
